PubChem BioAssay AID2060887 (Molecular Pharmacology Branch, DTP, NCI, 2025)
pIC50: −log10 of the molar value.

Test system: 782815-120-R-J1-PDC complex spheroid viability
Test: Anticancer human tumor 782815-120-R-J1-PDC patient-derived colon adenocarcinoma cell line growth inhibition [RAS]
Details: for pIC50: curve of first compound; for viability, T/C: stronger effect = lower value
In short: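 Tumour cells grown as complex spheroids with HUVEC endothelial cells and mesenchymal stem cells, treated with RAS pathway inhibitor combinations. Each agent spans half-log steps from near clinical Cmax, or 10 microM where Cmax is unknown.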

[1] = second compound 0.000949 µM, first compound 0.00316 µM
[2] = second compound 0.000949 µM, first compound 0.01 µM
[3] = second compound 0.000949 µM, first compound 0.0316 µM
[4] = second compound 0.000949 µM, first compound 0.1 µM
[5] = second compound 0.000949 µM, first compound 0.316 µM
[6] = second compound 0.000949 µM, first compound 1 µM
[7] = second compound 0.003 µM, first compound 0.00316 µM
[8] = second compound 0.003 µM, first compound 0.01 µM
[9] = second compound 0.003 µM, first compound 0.0316 µM
[10] = second compound 0.003 µM, first compound 0.1 µM
[11] = second compound 0.003 µM, first compound 0.316 µM
[12] = second compound 0.003 µM, first compound 1 µM
[13] = second compound 0.00949 µM, first compound 0.00316 µM
[14] = second compound 0.00949 µM, first compound 0.01 µM
[15] = second compound 0.00949 µM, first compound 0.0316 µM
[16] = second compound 0.00949 µM, first compound 0.1 µM
[17] = second compound 0.00949 µM, first compound 0.316 µM
[18] = second compound 0.00949 µM, first compound 1 µM
[19] = second compound 0.03 µM, first compound 0.00316 µM
[20] = second compound 0.03 µM, first compound 0.01 µM
[21] = second compound 0.03 µM, first compound 0.0316 µM
[22] = second compound 0.03 µM, first compound 0.1 µM
[23] = second compound 0.03 µM, first compound 0.316 µM
[24] = second compound 0.03 µM, first compound 1 µM
[25] = second compound 0.0949 µM, first compound 0.00316 µM
[26] = second compound 0.0949 µM, first compound 0.01 µM
[27] = second compound 0.0949 µM, first compound 0.0316 µM
[28] = second compound 0.0949 µM, first compound 0.1 µM
[29] = second compound 0.0949 µM, first compound 0.316 µM
[30] = second compound 0.0949 µM, first compound 1 µM
[31] = second compound 0.3 µM, first compound 0.00316 µM
[32] = second compound 0.3 µM, first compound 0.01 µM
[33] = second compound 0.3 µM, first compound 0.0316 µM
[34] = second compound 0.3 µM, first compound 0.1 µM
[35] = second compound 0.3 µM, first compound 0.316 µM
[36] = second compound 0.3 µM, first compound 1 µM
[37] = second compound 0.000949 µM, first compound 3.16 µM
[38] = second compound 0.000949 µM, first compound 10 µM
[39] = second compound 0.003 µM, first compound 3.16 µM
[40] = second compound 0.003 µM, first compound 10 µM
[41] = second compound 0.00949 µM, first compound 3.16 µM
[42] = second compound 0.00949 µM, first compound 10 µM
[43] = second compound 0.03 µM, first compound 3.16 µM
[44] = second compound 0.03 µM, first compound 10 µM
[45] = second compound 0.0949 µM, first compound 3.16 µM
[46] = second compound 0.0949 µM, first compound 10 µM
[47] = second compound 0.3 µM, first compound 3.16 µM
[48] = second compound 0.3 µM, first compound 10 µM
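Further: spheroids exposed to compounds for 7 days before reading.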
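Wherever viability, T/C is given: 100% = DMSO vehicle control viability.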

Compound: C=CC(=O)Nc1cc(Nc2nccc(-c3cn(C)c4ccccc34)n2)c(OC)cc1N(C)CCN(C)C + CCn1c(-c2cc(N3CCN(C)CC3)cnc2C(C)OC)c2c3cc(ccc31)-c1csc(n1)CC(NC(=O)C1CC1C)C(=O)N1CCCC(N1)C(=O)OCC(C)(C)C2
- pIC50 (second compound 0.000949 µM): < 6.00
- pIC50 (second compound 0.003 µM): < 6.00
- pIC50 (second compound 0.00949 µM): > 8.50
- pIC50 (second compound 0.03 µM): > 8.50
- pIC50 (second compound 0.0949 µM): > 8.50
- pIC50 (second compound 0.3 µM): > 8.50
- viability, T/C [1]: 71.5%
- viability, T/C [2]: 71.2%
- viability, T/C [3]: 79%
- viability, T/C [4]: 74%
- viability, T/C [5]: 76.4%
- viability, T/C [6]: 68.6%
- viability, T/C [7]: 59.3%
- viability, T/C [8]: 60.3%
- viability, T/C [9]: 55.6%
- viability, T/C [10]: 55.7%
- viability, T/C [11]: 54.7%
- viability, T/C [12]: 47.9%
- viability, T/C [13]: 31.2%
- viability, T/C [14]: 35.6%
- viability, T/C [15]: 34.2%
- viability, T/C [16]: 29.6%
- viability, T/C [17]: 28.3%
- viability, T/C [18]: 27.8%
- viability, T/C [19]: 17.8%
- viability, T/C [20]: 23.9%
- viability, T/C [21]: 18.6%
- viability, T/C [22]: 17.5%
- viability, T/C [23]: 19.7%
- viability, T/C [24]: 18.2%
- viability, T/C [25]: 16.1%
- viability, T/C [26]: 16.6%
- viability, T/C [27]: 14.8%
- viability, T/C [28]: 16.2%
- viability, T/C [29]: 15.1%
- viability, T/C [30]: 19.5%
- viability, T/C [31]: 17.5%
- viability, T/C [32]: 16.6%
- viability, T/C [33]: 16.8%
- viability, T/C [34]: 12.5%
- viability, T/C [35]: 16.3%
- viability, T/C [36]: 18.8%

Compound: CC(C)NCC(C(=O)N1CCN(c2ncnc3c2C(C)CC3O)CC1)c1ccc(Cl)cc1 (stereo not drawn) + CCn1c(-c2cc(N3CCN(C)CC3)cnc2C(C)OC)c2c3cc(ccc31)-c1csc(n1)CC(NC(=O)C1CC1C)C(=O)N1CCCC(N1)C(=O)OCC(C)(C)C2
- pIC50 (second compound 0.000949 µM): < 5.00
- pIC50 (second compound 0.003 µM): < 5.00
- pIC50 (second compound 0.00949 µM): > 7.50
- pIC50 (second compound 0.03 µM): > 7.50
- pIC50 (second compound 0.0949 µM): > 7.50
- pIC50 (second compound 0.3 µM): > 7.50
- viability, T/C [3]: 79.6%
- viability, T/C [4]: 77.7%
- viability, T/C [5]: 74.5%
- viability, T/C [6]: 71.6%
- viability, T/C [37]: 77.4%
- viability, T/C [38]: 87.9%
- viability, T/C [9]: 57.2%
- viability, T/C [10]: 54.8%
- viability, T/C [11]: 61.9%
- viability, T/C [12]: 50.3%
- viability, T/C [39]: 57.2%
- viability, T/C [40]: 51.3%
- viability, T/C [15]: 34.2%
- viability, T/C [16]: 33.1%
- viability, T/C [17]: 35.3%
- viability, T/C [18]: 30.1%
- viability, T/C [41]: 30%
- viability, T/C [42]: 26.4%
- viability, T/C [21]: 20.2%
- viability, T/C [22]: 19.9%
- viability, T/C [23]: 19.1%
- viability, T/C [24]: 17.2%
- viability, T/C [43]: 16.5%
- viability, T/C [44]: 16.1%
- viability, T/C [27]: 17.2%
- viability, T/C [28]: 17.7%
- viability, T/C [29]: 18.8%
- viability, T/C [30]: 15%
- viability, T/C [45]: 16.1%
- viability, T/C [46]: 11%
- viability, T/C [33]: 18.3%
- viability, T/C [34]: 17.4%
- viability, T/C [35]: 15.3%
- viability, T/C [36]: 14.8%
- viability, T/C [47]: 14.3%
- viability, T/C [48]: 8.75%

Compound: CC(Nc1ccc2c(c1)OCCn1cc(N3C(=O)OCC3C(F)F)nc1-2)C(N)=O (stereo not drawn) + CCn1c(-c2cc(N3CCN(C)CC3)cnc2C(C)OC)c2c3cc(ccc31)-c1csc(n1)CC(NC(=O)C1CC1C)C(=O)N1CCCC(N1)C(=O)OCC(C)(C)C2
- pIC50 (second compound 0.000949 µM): < 5.00
- pIC50 (second compound 0.003 µM): 6.71
- pIC50 (second compound 0.00949 µM): > 7.50
- pIC50 (second compound 0.03 µM): > 7.50
- pIC50 (second compound 0.0949 µM): > 7.50
- pIC50 (second compound 0.3 µM): > 7.50
- viability, T/C [3]: 75.1%
- viability, T/C [4]: 73.5%
- viability, T/C [5]: 76%
- viability, T/C [6]: 62.9%
- viability, T/C [37]: 73.8%
- viability, T/C [38]: 78.5%
- viability, T/C [9]: 53.1%
- viability, T/C [10]: 54.9%
- viability, T/C [11]: 46.4%
- viability, T/C [12]: 47.5%
- viability, T/C [39]: 45.1%
- viability, T/C [40]: 51.8%
- viability, T/C [15]: 29.8%
- viability, T/C [16]: 31.2%
- viability, T/C [17]: 27.9%
- viability, T/C [18]: 24.9%
- viability, T/C [41]: 24.1%
- viability, T/C [42]: 25.3%
- viability, T/C [21]: 19.8%
- viability, T/C [22]: 18.4%
- viability, T/C [23]: 15%
- viability, T/C [24]: 15.6%
- viability, T/C [43]: 16.2%
- viability, T/C [44]: 13.1%
- viability, T/C [27]: 15.4%
- viability, T/C [28]: 15.1%
- viability, T/C [29]: 11.4%
- viability, T/C [30]: 11.5%
- viability, T/C [45]: 13.5%
- viability, T/C [46]: 11.9%
- viability, T/C [33]: 15.6%
- viability, T/C [34]: 13%
- viability, T/C [35]: 10.1%
- viability, T/C [36]: 11.8%
- viability, T/C [47]: 11.9%
- viability, T/C [48]: 11.8%

Compound: O=C(c1ccc(F)c(F)c1Nc1ccc(I)cc1F)N1CC(O)([C@@H]2CCCCN2)C1 + CCn1c(-c2cc(N3CCN(C)CC3)cnc2C(C)OC)c2c3cc(ccc31)-c1csc(n1)CC(NC(=O)C1CC1C)C(=O)N1CCCC(N1)C(=O)OCC(C)(C)C2
- pIC50 (second compound 0.000949 µM): 7.62
- pIC50 (second compound 0.003 µM): 8.26
- pIC50 (second compound 0.00949 µM): > 8.50
- pIC50 (second compound 0.03 µM): > 8.50
- pIC50 (second compound 0.0949 µM): > 8.50
- pIC50 (second compound 0.3 µM): > 8.50
- viability, T/C [1]: 75.1%
- viability, T/C [2]: 64.1%
- viability, T/C [3]: 46.5%
- viability, T/C [4]: 23.2%
- viability, T/C [5]: 13%
- viability, T/C [6]: 1.01%
- viability, T/C [7]: 59.4%
- viability, T/C [8]: 37.5%
- viability, T/C [9]: 32.3%
- viability, T/C [10]: 17.9%
- viability, T/C [11]: 6.64%
- viability, T/C [12]: 0.53%
- viability, T/C [13]: 28.2%
- viability, T/C [14]: 24.9%
- viability, T/C [15]: 13.7%
- viability, T/C [16]: 8.14%
- viability, T/C [17]: 1.43%
- viability, T/C [18]: 0.48%
- viability, T/C [19]: 12.3%
- viability, T/C [20]: 9.75%
- viability, T/C [21]: 3.83%
- viability, T/C [22]: 1.67%
- viability, T/C [23]: 0.8%
- viability, T/C [24]: 0.47%
- viability, T/C [25]: 5.71%
- viability, T/C [26]: 2.85%
- viability, T/C [27]: 2.06%
- viability, T/C [28]: 1.08%
- viability, T/C [29]: 0.77%
- viability, T/C [30]: 0.49%
- viability, T/C [31]: 6.59%
- viability, T/C [32]: 1.81%
- viability, T/C [33]: 1.42%
- viability, T/C [34]: 0.75%
- viability, T/C [35]: 0.63%
- viability, T/C [36]: 0.61%
